# Reference: article PMC8948292, “Combining PEGylated mito-atovaquone with MCT and Krebs cycle redox inhibitors as a potential strategy to abrogate tumor cell proliferation” (Scientific Reports, 2022)
# What was measured:
# [1] = system: mitochondrial complex I (U87MG cells); assay: Complex I-dependent oxygen consumption, Seahorse XF-96; format: cell-based, human
# Protocol: (§1) Mitochondrial oxygen consumption was measured using the Seahorse XF-96 Extracellular Flux Analyzer (Agilent, North Billerica, MA)[3],[33],[67],[68]. To determine the intact cell mitochondrial function of MiaPaCa-2 cells in response to Mito-PEG-ATO analogs, we used the bioenergetic function assay previously described[2],[3]. […] From these measurements, indices of mitochondrial function were determined as previously described[2],[3]. For mitochondrial complex activities assays, after cells were treated with Mito-PEG-ATO analogs for 24 h, the OCR-based assessment of mitochondrial complex activities was carried out on acutely permeabilized cells in the presence of different mitochondrial substrates, i.e., pyruvate/malate for complex I and duroquinol for complex III[3],[32],[34],[69]. Rotenone, malonate, and antimycin A (Sigma-Aldrich, St. Louis, MO) were used as specific inhibitors of mitochondrial complexes I, II, and III, respectively. Briefly, cells that were intact after treatments were immediately permeabilized using the Seahorse XF Plasma Membrane Permeabilizer (Agilent). The mitochondrial complex I-induced OCR was assayed in mannitol and sucrose buffer[69] containing 10 mM pyruvate and 1.5 mM malate (substrates for complex I) and 10 mM malonate (which inhibits complex II activities). […] The IC50 values were determined as previously reported. […]
# U87MG cells = assay: Basal extracellular acidification rate (ECAR) in intact cells; format: cell-based, human
# MiaPaCa-2 cells [2] = assay: Cell proliferation (cell confluence), IncuCyte Live-Cell Analysis System; format: cell-based, human; conditions: for Cell confluence (% of control): MiaPaCa-2 cells, control ~90% confluence
# Summary of the method: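 MiaPaCa-2 cells in DMEM with 10% FBS, plated at 1,000 cells/well in triplicate and adhered overnight, then treated with Mito-PEG-ATO analogs. Confluence imaged label-free over several days, increase in percent confluence serving as proliferation surrogate.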
# [3] = system: mitochondrial respiration (OCR) in intact MiaPaCa-2 cells; assay: Intact cell mitochondrial respiration (basal OCR), Seahorse XF-96; format: cell-based, human
# Summary of the method: (§2)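 MiaPaCa-2 cells were treated 24 h with Mito-PEG-ATO analogs, and OCR was read on a Seahorse XF-96; basal respiration was taken in intact cells. For complex I, permeabilized cells received 10 mM pyruvate, 1.5 mM malate and 10 mM malonate; for complex III, 0.5 mM duroquinol, 1 µM rotenone and 10 mM malonate, both in mannitol/sucrose buffer. IC50 values were derived from the OCR data.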
# MiaPaCa-2 cells [4] = assay: Basal extracellular acidification rate (ECAR) in intact cells; format: cell-based, human; conditions: 24 h treatment
# Protocol: as §1
# [5] = system: mitochondrial respiration (OCR) in intact U87MG cells; assay: Intact cell mitochondrial respiration (basal OCR), Seahorse XF-96; format: cell-based, human; conditions: 24 h treatment
# Protocol: Mitochondrial oxygen consumption was measured using the Seahorse XF-96 Extracellular Flux Analyzer (Agilent, North Billerica, MA)[3],[33],[67],[68]. To determine the intact cell mitochondrial function of MiaPaCa-2 cells in response to Mito-PEG-ATO analogs, we used the bioenergetic function assay previously described[2],[3]. […] From these measurements, indices of mitochondrial function were determined as previously described[2],[3]. For mitochondrial complex activities assays, after cells were treated with Mito-PEG-ATO analogs for 24 h, the OCR-based assessment of mitochondrial complex activities was carried out on acutely permeabilized cells in the presence of different mitochondrial substrates, i.e., pyruvate/malate for complex I and duroquinol for complex III[3],[32],[34],[69]. Rotenone, malonate, and antimycin A (Sigma-Aldrich, St. Louis, MO) were used as specific inhibitors of mitochondrial complexes I, II, and III, respectively. […] The IC50 values were determined as previously reported.
# Figure S8. […] (b) After eight baseline OCR measurements, the response to mitochondrial modulators (oligomycin, dinitrophenol, and rotenone/antimycin A as described in the Methods section) were recorded. The last three stable baseline OCR reading before oligomycin injection was plotted against the concentration of Mito-PEG4-ATO (red open box). […]
# [6] = target: T1, mitochondrial complex III (U87MG cells) (Homo sapiens, UniProt P00156); assay: Complex III-dependent oxygen consumption, Seahorse XF-96; format: cell-based
# T1 construct: endogenous in cells; host or cells: U87MG (ATCC HTB-14)
# T1 sequence (P00156 whole entry): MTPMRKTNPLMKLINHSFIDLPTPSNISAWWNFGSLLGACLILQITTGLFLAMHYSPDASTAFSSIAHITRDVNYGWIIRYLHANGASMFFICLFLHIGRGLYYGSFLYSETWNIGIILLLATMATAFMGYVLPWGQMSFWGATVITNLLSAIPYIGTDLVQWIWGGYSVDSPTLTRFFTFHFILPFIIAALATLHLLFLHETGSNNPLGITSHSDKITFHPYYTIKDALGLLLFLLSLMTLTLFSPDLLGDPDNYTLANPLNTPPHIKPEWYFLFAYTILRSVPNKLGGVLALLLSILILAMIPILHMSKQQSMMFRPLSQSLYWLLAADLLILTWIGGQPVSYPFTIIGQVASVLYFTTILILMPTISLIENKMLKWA
# T1 sequence (P47985 whole entry partner): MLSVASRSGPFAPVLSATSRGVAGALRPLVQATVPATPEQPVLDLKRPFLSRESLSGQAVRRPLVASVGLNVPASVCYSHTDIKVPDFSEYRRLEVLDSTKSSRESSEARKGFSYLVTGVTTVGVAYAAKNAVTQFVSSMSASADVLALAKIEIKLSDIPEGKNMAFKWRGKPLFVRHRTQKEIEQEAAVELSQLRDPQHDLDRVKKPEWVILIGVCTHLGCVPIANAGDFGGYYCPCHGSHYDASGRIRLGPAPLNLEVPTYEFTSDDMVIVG
# Protocol: as §1
# [7] = target: mitochondrial complex III (MiaPaCa-2 cells) (Homo sapiens, UniProt P00156); assay: Complex III-dependent oxygen consumption in permeabilized cells, Seahorse XF-96; format: cell-based
# mitochondrial complex III (MiaPaCa-2 cells), sequence (P00156 whole entry): as the sequence (P00156 whole entry) above
# mitochondrial complex III (MiaPaCa-2 cells), sequence (P47985 whole entry partner): as the sequence (P47985 whole entry partner) above
# Summary of the method: as §2
smiles,measurement,setting,value
"O=C1C(OCCOCCOCCOCC[P+](c2ccccc2)(c2ccccc2)c2ccccc2)=C([C@H]2CC[C@H](c3ccc(Cl)cc3)CC2)C(=O)c2ccccc21.[Br-] [Mito-PEG4-ATO, [2-(2-(2-(2-((3-(trans-4-(4-chlorophenyl)cyclohexyl)-1,4-dioxo-1,4-dihydronaphthalen-2-yl)oxy)ethoxy)ethoxy)ethoxy)ethyl]triphenylphosphonium bromide]",Complex I-induced oxygen consumption,[1],inhibited
same,ECAR,U87MG cells,stimulated ECAR
same,IC50,"MiaPaCa-2 cells [2]; Homo sapiens, MIA PaCa-2, read-out: IC50, inhibition of cell proliferation",0.14 µM
same,Cell confluence (% of control),MiaPaCa-2 cells [2]; 0.005 µM,100.53 % of control
same,Cell confluence (% of control),MiaPaCa-2 cells [2]; 0.02 µM,101.08 % of control
same,Cell confluence (% of control),MiaPaCa-2 cells [2]; 0.05 µM,100.72 % of control
same,Cell confluence (% of control),MiaPaCa-2 cells [2]; 0.08 µM,98.94 % of control
same,Cell confluence (% of control),MiaPaCa-2 cells [2]; 0.16 µM,29.68 % of control
same,Cell confluence (% of control),MiaPaCa-2 cells [2]; 0.32 µM,3.32 % of control
same,Cell confluence (% of control),MiaPaCa-2 cells [2]; 0.48 µM,3.11 % of control
same,Cell confluence (% of control),MiaPaCa-2 cells [2]; 0.8 µM,3.18 % of control
same,Cell confluence (% of control),MiaPaCa-2 cells [2]; 1.6 µM,2.81 % of control
same,Cell confluence (% of control),MiaPaCa-2 cells [2]; 4.8 µM,2.52 % of control
same,OCR (pmol/min/µg protein),"[3]; 0.003 µM, 24 h treatment, intact MiaPaCa-2 cells, baseline OCR, mean, n=4",20.44 pmol/min/µg protein
same,"OCR (basal, intact cell mitochondrial respiration)","[3]; 0.01 µM, 24 h treatment, intact MiaPaCa-2 cells, mean, n=4",17.79 pmol/min/µg protein
same,"OCR (basal, intact cell mitochondrial respiration)","[3]; 0.03 µM, 24 h treatment, intact MiaPaCa-2 cells, mean, n=4",17.72 pmol/min/µg protein
same,"OCR (basal, intact cell mitochondrial respiration)","[3]; 0.05 µM, 24 h treatment, intact MiaPaCa-2 cells, mean, n=4",16.82 pmol/min/µg protein
same,"OCR (basal, intact cell mitochondrial respiration)","[3]; 0.1 µM, 24 h treatment, intact MiaPaCa-2 cells, mean, n=4",13.38 pmol/min/µg protein
same,"OCR (basal, intact cell mitochondrial respiration)","[3]; 0.2 µM, 24 h treatment, intact MiaPaCa-2 cells, mean, n=4",9.15 pmol/min/µg protein
same,"OCR (basal, intact cell mitochondrial respiration)","[3]; 0.3 µM, 24 h treatment, intact MiaPaCa-2 cells, mean, n=4",6.10 pmol/min/µg protein
same,"OCR (basal, intact cell mitochondrial respiration)","[3]; 0.5 µM, 24 h treatment, intact MiaPaCa-2 cells, mean, n=4",3.29 pmol/min/µg protein
same,"OCR (basal, intact cell mitochondrial respiration)","[3]; 1 µM, 24 h treatment, intact MiaPaCa-2 cells, mean, n=4",1.41 pmol/min/µg protein
same,"OCR (basal, intact cell mitochondrial respiration)","[3]; 3 µM, 24 h treatment, intact MiaPaCa-2 cells, mean, n=4",0.43 pmol/min/µg protein
same,"OCR (basal, intact cell mitochondrial respiration)","[3]; 10 µM, 24 h treatment, intact MiaPaCa-2 cells, mean, n=4",0.42 pmol/min/µg protein
same,IC50,"[3]; Homo sapiens, MIA PaCa-2, 24 h, read-out: IC50, inhibition of basal OCR in intact cells",0.26 µM
same,ECAR,MiaPaCa-2 cells [4],stimulated ECAR
same,OCR in intact cells,[5],suppressed
same,Complex III-induced oxygen consumption,[6],inhibited
same,"Complex III activity (OCR, % of control)",[7]; 0.02 µM,98.8 % of control
same,"Complex III activity (OCR, % of control)",[7]; 0.05 µM,96.0 % of control
same,"Complex III activity (OCR, % of control)",[7]; 0.08 µM,99.9 % of control
same,"Complex III activity (OCR, % of control)",[7]; 0.16 µM,96.5 % of control
same,"Complex III activity (OCR, % of control)",[7]; 0.32 µM,90.1 % of control
same,"Complex III activity (OCR, % of control)",[7]; 0.5 µM,92.4 % of control
same,"Complex III activity (OCR, % of control)",[7]; 0.8 µM,76.5 % of control
same,"Complex III activity (OCR, % of control)",[7]; 1.6 µM,51.9 % of control
same,"Complex III activity (OCR, % of control)",[7]; 5 µM,24.8 % of control
same,IC50,"[7]; MiaPaCa-2 cells, 24 h treatment, antimycin A-inhibitable OCR, read-out: IC50, complex III-induced oxygen consumption (Complex III activity)",1.7 µM
